Test results published in US20120053211A1, “TREATMENT OF PANCREATIC CANCER” (ARDEA BIOSCIENCES, INC., priority 2009, published 2012).
Like-named read-outs stand apart in the source and are kept apart here.

How the values were obtained:
[1] = test system: human pancreatic cancer cell line BxPC3; test: In vitro activity in human pancreatic cancer cell line BxPC3; assay type: cell-based; conditions: read-out: EC50 (nM) (±standard deviation)
Protocol: The in vitro activity of compound A was determined in the human pancreatic cancer cell line BxPC3 (normal […] status). EC50 values were determined (in 1% FBS and with 45 mg/mL has), as follows

tumor = test: Tumor volume following administration of compound A (FIG. 3, FIG. 4); assay type: in vivo

SMILES: COc1cc(F)c(F)c(Nc2ccc(I)cc2F)c1NS(=O)(=O)C1(C[C@H](O)CO)CC1 [Compound A, (S)-N-(3,4-difluoro-2-(2-fluoro-4-iodophenylamino)-6-methoxyphenyl)-1-(2,3-dihydroxypropyl)cyclopropane-1-sulfonamide]
- EC50 ([1]; BXPC-3, BxPC3, 1% FBS): 15.8 ± 2.4 nM
- EC50 ([1]; BXPC-3, BxPC3, +45 mg/mL hSA): 207 ± 29 nM
- tumor volume as a function of time (tumor; FIG. 3): decrease in tumor volume
- tumor volume as a function of time (tumor; FIG. 4): decrease in tumor volume
